In US10407408B2, “Imide derivatives and use thereof as medicine” (MITSUBISHI TANABE PHARMA CORPORATION, priority 2015, dated 2019):

Tests used:
[1] = test system: proMMP-9 production by human TNFα stimulated THP-1 cell; assay: Action on proMMP-9 production by human TNFα stimulated THP-1 cell (ELISA of culture supernatant); format: cell-based; details: THP-1 cells, human TNFα 10 ng/mL, 24 hr; IC50 from 3 concentrations (5, 50, 500 or 1, 10, 100 nmol/L); read-out: proMMP-9 suppression rate IC50
Protocol: Experimental Example 1: Action of Human TNFα Stimulated THP-1 Cell on proMMP-9 Production
(§1) THP-1 cell (human monocytic leukemia cell line) was adjusted to 1×10^7 cells/mL in a culture medium (10% fetal bovine serum/RPMI1640 medium), and dispensed to a 96 well multiplate. This was equilibrated under the conditions of 37° C./5% CO2, and a culture medium containing human TNFα (final concentration 10 ng/mL) and a test compound was dissolved therein. After incubation under the conditions of 37° C./5% CO2 for 24 hr, the culture medium was centrifuged and the culture supernatant was collected, which was subjected to the following measurement.
Quantification of proMMP-9 in Culture Supernatant
The proMMP-9 concentration of the collected culture supernatant was quantified using a commercially available measurement reagent (manufactured by GE Healthcare, MMP-9, Human, Biotrak ELISA System).
Calculation of proMMP-9 Suppression Rate
The proMMP-9 suppression rate of the test compound was calculated from the following formula: % suppression=100−((Test−Min)/(Max−Min)×100) wherein Max is proMMP-9 concentration of culture supernatant induced by stimulation with human TNFα, without addition of a test compound (added with solvent alone) Min is proMMP-9 concentration of culture supernatant without addition of a test compound (added with solvent alone) and without stimulation with human TNFα, and Test is proMMP-9 concentration of culture supernatant induced by stimulation with human TNFα when a test compound is added.
Furthermore, the concentration of the test compound necessary for suppressing proMMP-9 production by human TNFα stimulated THP-1 cell by 50% (IC50 value) was calculated from 3 points of proMMP-9 suppression rate at test compound concentrations of 5, 50 and 500 nmol/L or 1, 10 and 100 nmol/L.
MMP-9 is produced as a precursor proMMP-9 by the stimulated cells, extracellularly activated and expresses the physiological activity as MMP-9. That is, evaluation of the suppression of proMMP-9 produced by the cell means evaluation of the suppression of production of MMP-9. The same applies to MMP-2, and evaluation of the suppression of proMMP-2 produced by the cell means evaluation of the suppression of production of MMP-2.

[2] = test system: mouse dextran sulfuric acid induced colitis model; assay: Suppressive action on enteritis score (Disease Activity Index, DAI) of mouse dextran sulfuric acid induced colitis model; format: in vivo; details: mouse (C57BL/6J), oral, 30 mg/kg twice per day until day 10; AUC of DAI on days 3, 5, 7 and 10; pathology group 11.75 ± 1.18
Protocol: Experimental Example 4 Suppressive Action on Enteritis Score (Disease Activity Index, DAI) of Mouse Dextran Sulfuric Acid Induced Colitis Model
Mice (C57BL/6J, male, 6-week-old) were allowed to freely ingest 2.0% (w/v) dextran sulfuric acid solution for 5 days, the solution was exchanged with water, and pathology was evaluated on day 10. The test compound was orally administered twice per day at a dose of 30 mg/kg for 5 days of dextran sulfuric acid solution ingestion and thereafter until day 10. On days 3, 5, 7 and 10 from the start of the test, the body weight decrease, stool consistency, and the state of occult blood or gross bleeding were respectively scored in 0-4 points, and the mean of the total score was taken as Disease Activity Index (DAI), an index of enteritis pathology. The diagnostic criteria of the stool consistency score and occult blood or gross bleeding score were as follows.
The evaluation results are shown by the area under the curve (AUC) calculated using DAI on days 3, 5, 7 and 10.

[3] = test system: rat monoiodoacetic acid-induced osteoarthritis model; assay: Suppressive action on joints injury marker COMP in rat monoiodoacetic acid-induced osteoarthritis model; format: in vivo; details: for Joints injury marker COMP suppression rate (%): oral
Protocol: Experimental Example 3 Suppressive Action on Articular Joints Injury Marker Free of Rat Monoiodoacetic Acid-Induced Osteoarthritis Model
Monoiodoacetic acid solution (0.3 mg/25 μL) was injected into the right hindpaw knee joint cavity of anesthetized rats (LEW, male, 7-week-old). […] On day 5, cold phosphate buffer (20 μL) was injected into the right hindpaw knee joint cavity of the euthanized rats, and the joint cavity washing was collected. The joints injury marker COMP (Cartilage Oligomeric Matrix Protein) concentration of the joint cavity washing was quantified using a commercially available measurement reagent (Animal COMP ELISA Kit manufactured by Anamer Medical).
Calculation of Joints Injury Marker COMP Suppression Rate
The COMP suppression rate of the test compound was calculated from the following formula: % suppression=100−((Test−Min)/(Max−Min)×100) wherein Max is a COMP concentration of the joint cavity washing of the pathology group administered with a monoiodoacetic acid solution (oral administration of solvent alone), Min is a COMP concentration of the joint cavity washing of the non-treatment normal group (oral administration of solvent alone), and Test is a COMP concentration of the joint cavity washing of the test compound administration group.

[4] = test system: proMMP-2 production by THP-1 cell; assay: Action on hemostatic type proMMP-2 production by THP-1 cell (ELISA of culture supernatant); format: cell-based; details: Homo sapiens; THP-1 cells, no stimulation, 24 hr; IC50 from 0.1, 1 and 10 μmol/L; read-out: IC50 value (μmol/L), proMMP-2 production suppression
Protocol: Experimental Example 2: Action of THP-1 Cell on Hemostatic Type proMMP-2 Production
as §1, with “dissolving” for “containing human TNFα (final concentration 10 ng/mL) and”, “added thereto.” for “dissolved therein.”
Quantification of proMMP-2 in Culture Supernatant
The proMMP-2 concentration of the collected culture supernatant was quantified using a commercially available measurement reagent (manufactured by GE Healthcare, MMP-2, Human, Biotrak ELISA System).
Calculation of proMMP-2 Suppression Rate
The proMMP-2 suppression rate of the test compound was calculated from the following formula: % suppress=100−((Test/Cont)×100). wherein Cont is proMMP-2 concentration of culture supernatant without addition of a test compound (added with solvent alone) and Test is proMMP-2 concentration of culture supernatant with addition of a test compound. […]

Row | Compound | IC50 [1] | other results
1 | Cc1cnc(N2CCN(C(=O)c3ccc([C@@]4(C)NC(=O)NC4=O)cc3)CC2)c(C)c1 [Example 1, (R)-5-{4-[4-(3,5-dimethylpyridin-2-yl)piperazine-1-carbonyl]phenyl}-5-methylimidazolidine-2,4-dione] | 27 nM | DAI (AUC) [2]: 9.78 ± 0.80; Joints injury marker COMP suppression rate (%) ([3]; rat (LEW), 1 mg/kg once per day, joint cavity washing on day 5): 80.9%; superiority in joints injury marker COMP suppression rate compared with Example 450 described in patent document 3 ([3]; rat monoiodoacetic acid model, both at 1 mg/kg once per day): at least 5 fold; IC50 [4]: > 10 µmol/L
2 | Cc1cnc(N2CCN(C(=O)c3ccc(C4(CF)NC(=O)NC4=O)cc3)C(C)(C)C2)c(C)c1 (stereo not drawn) [Example 69, 5-{4-[4-(3,5-dimethylpyridin-2-yl)-2,2-dimethylpiperazine-1-carbonyl]phenyl}-5-fluoromethylimidazolidine-2,4-dione] | 11 nM | –
3 | Cc1cnc(N2CCN(C(=O)c3ccc([C@@]4(C(C)C)NC(=O)NC4=O)cc3)C3(CCC3)C2)c(C)c1 [Example 65, (R)-5-{4-[8-(3,5-dimethylpyridin-2-yl)-5,8-diazaspiro[3.5]nonane-5-carbonyl]phenyl}-5-isopropylimidazolidine-2,4-dione] | 9 nM | –
4 | Cc1ccc2nc(C3CCN(C(=O)c4ccc([C@@]5(C)NC(=O)NC5=O)cc4)CC3)oc2c1 [Example 267, (R)-5-methyl-5-{4-[4-(6-methylbenzoxazol-2-yl)piperidine-1-carbonyl]phenyl}imidazolidine-2,4-dione] | 5 nM | –
5 | COCC1(c2ccc(C(=O)N3CCC(c4coc5cc(C)cc(C)c45)CC3)cn2)CC(=O)NC1=O (stereo not drawn) [Example 343, 3-{5-[4-(4,6-dimethyl-benzofuran-3-yl)piperidine-1-carbonyl]pyridin-2-yl}-3-methoxymethyl-pyrrolidine-2,5-dione] | < 3 nM | –
6 | Cc1cnc(N[C@@H]2CN(C(=O)c3ccc([C@@]4(C(C)C)NC(=O)NC4=O)cc3)C[C@H]2O)c(C)c1 [Example 187, (R)-5-{4-[(3R,4R)-3-(3,5-dimethylpyridin-2-ylamino)-4-hydroxypyrrolidine-1-carbonyl]phenyl}-5-isopropylimidazolidine-2,4-dione] | 19 nM | –
7 | Cc1nnc(N2CCN(C(=O)c3ccc([C@@]4(C(C)C)NC(=O)NC4=O)cc3)CC2)c(C)c1C [Example 141, (R)-5-isopropyl-5-{4-[4-(4,5,6-trimethylpyridazin-3-yl)piperazine-1-carbonyl]phenyl}imidazolidine-2,4-dione] | 70 nM | –
8 | COC(=O)[C@@H]1CN(c2ncc(C)cc2C)CCN1C(=O)c1ccc([C@@]2(C(C)C)NC(=O)NC2=O)cc1 [Example 64, (S)-4-(3,5-dimethylpyridin-2-yl)-1-[4-((R)-4-isopropyl-2,5-dioxoimidazolidin-4-yl)benzoyl]piperazine-2-carboxylic acid methyl ester] | 64 nM | –
9 | Cc1cnc2nc(C3CCN(C(=O)c4ccc([C@@]5(C(C)C)NC(=O)NC5=O)cc4)CC3)sc2c1 [Example 220, (R)-5-isopropyl-5-{4-[4-(6-methylthiazolo[4,5-b]pyridin-2-yl)piperidine-1-carbonyl]phenyl}imidazolidine-2,4-dione] | 55 nM | –
10 | Cc1cnc(N2CCN(C(=O)c3ccc(N4C(=O)NC(=O)C4C)cc3)CC2)c(C)c1 (stereo not drawn) [Example 450, reference compound] | – | Joints injury marker COMP suppression rate (%) ([3]; comparison compound of patent document 3 (WO 2011/136292), rat, 1 mg/kg once per day): 14.4%
11 | Cc1cnc(N2CCN(C(=O)c3ccc(N4C(=O)NC(=O)C4C(C)C)cc3)CC2)c(C)c1 (stereo not drawn) [Example 571, reference compound] | – | Joints injury marker COMP suppression rate (%) ([3]; comparison compound of patent document 3 (WO 2011/136292), rat, 3 mg/kg once per day): 55.3%
12 | Cc1ccc2nc(C3CCN(C(=O)c4ccc([C@@]5(C(C)C)NC(=O)NC5=O)cc4)CC3)oc2n1 [Example 221, (R)-5-isopropyl-5-{4-[4-(5-methyloxazolo[5,4-b]pyridin-2-yl)piperidine-1-carbonyl]phenyl}imidazolidine-2,4-dione] | 72 nM | –
13 | COC1(C2(c3ccc(C(=O)N4CCN(c5ncc(C)cc5C)CC4)cc3)NC(=O)NC2=O)CC1 (stereo not drawn) [Example 112, 5-{4-[4-(3,5-dimethylpyridin-2-yl)piperazine-1-carbonyl]phenyl}-5-(1-methoxycyclopropyl) imidazolidine-2,4-dione] | 11 nM | –
14 | Cc1cc(C2(C)NC(=O)NC2=O)ccc1C(=O)N1CCN(c2nc(C)c(C)cc2C)CC1 (stereo not drawn) [Example 126, 5-methyl-5-{3-methyl-4-[4-(3,5,6-trimethylpyridin-2-yl)piperazine-1-carbonyl]phenyl}imidazolidine-2,4-dione] | 8 nM | –
15 | Cc1cc(C)c2c(cnn2C2CCN(C(=O)c3ccc([C@@]4(C(C)C)NC(=O)NC4=O)cc3)CC2)c1 [Example 272, (R)-5-{4-[4-(5,7-dimethylindazol-1-yl)piperidine-1-carbonyl]phenyl}-5-isopropylimidazolidine-2,4-dione] | < 5 nM | –
16 | Cc1cnc(N2CCN(C(=O)c3ccc([C@@]4(C(C)C)NC(=O)NC4=O)cc3)CC2)c(C)c1 [Example 8, (R)-5-{4-[4-(3,5-dimethylpyridin-2-yl)piperazine-1-carbonyl]phenyl}-5-isopropylimidazolidine-2,4-dione] | – | Joints injury marker COMP suppression rate (%) ([3]; rat (LEW), 0.1 mg/kg once per day, joint cavity washing on day 5): 84.3%; superiority in joints injury marker COMP suppression rate compared with Example 571 described in patent document 3 ([3]; rat monoiodoacetic acid model, 0.1 mg/kg versus 3 mg/kg once per day): at least 30 fold
